Test results published in patent publication US4180655A, “Nitrosourea derivatives” (Suami; Tetsuo, priority 1974, dated 1979).
Like-named read-outs stand apart in the source and are kept apart here.

Tested on: Leukemia L1210 cells
Experiment: Chemotherapeutic effect of nitrosourea derivatives on leukemia L1210 in mice
Assay type: in vivo, mice (BDF1/BDF)
Description: Chemotherapeutic effect of a variety of the nitrosourea derivatives of the formula I according to this invention on leukemia L1210 in mice were investigated by the following method and materials.
A--BDF1 mice (about 6 week-aged; body weight: 22±1 g); each experimental group was composed of 2 male mice.
B--BDF1 mice (about 7 week-aged; body weight: 21±2 g); each experimental group was composed of 3 male mice.
C--BDF mice (about 7 week-aged; body weight: 22±2 g); each experimental group was composed of 2 male mice.
D--BDF mice (about 6 week-aged; body weight: 21±2 g); each experimental group was composed of 3 male mice.
E--BDF1 mice (about six week-aged; body weight 20±1 g); each experimental group was composed of 3 female mice.
F--BDF1 mice (about six week-aged; body weight 21±1 g); each experimental group was composed of 3 male mice.
A--Leukemia L1210 cells (2.1×10^6 cells/ 0.05 ml/mouse) were intraperitoneally inoculated.
B--Leukemia L1210 cells (1.9×10^6 cells/0.05 ml/mouse) were intraperitoneally inoculated.
C--Leukemia L1210 cells (1.2×10^6 cells/0.05 ml/mouse) were intraperitoneally inoculated.
A--The test compound was dissolved in a physiological saline solution and administered intraperitoneally at a volume of 0.1 ml/mouse. The administration was made at once/day, from 24 hours after i.p. inoculation of L1210 cells, for 3 days. The effect of test compound was assessed by mean survival days of mice, percent increase in life-span, anatomical findings involving the volume of ascites.
B--The same as that used in A except that the drug administration was continued for 5 days.
C--The same as that used in A except that the test compound was suspended in 0.5% CMC solution and that the drug administration was continued for 5 days.
D--The same as that used in A except that the test compound was dissolved in distilled water for injection purposes.
The percentage increase in life-span (ILS) was calculated as follows:
Percentage increase in life-span (ILS)=T-C/C×100
T: The mean survival days of the treated animals.
C: The mean survival days of the untreated control.

[1] = 0.5 mg/kg i.p. once/day for 3 days (procedure A, saline)
[2] = 1 mg/kg i.p. once/day for 3 days (procedure A, saline)
[3] = 2 mg/kg i.p. once/day for 3 days (procedure A, saline)
[4] = 4 mg/kg i.p. once/day for 3 days (procedure A, saline)
[5] = 8 mg/kg i.p. once/day for 3 days (procedure A, saline)
[6] = Mus musculus, L1210, ip, 72 h, 1 mg/kg i.p. once/day for 3 days (procedure A, saline), read-out: Percentage increase in life-span (ILS)
[7] = Mus musculus, L1210, ip, 72 h, 2 mg/kg i.p. once/day for 3 days (procedure A, saline), read-out: Percentage increase in life-span (ILS)
[8] = Mus musculus, L1210, ip, 72 h, 4 mg/kg i.p. once/day for 3 days (procedure A, saline), read-out: Percentage increase in life-span (ILS)
[9] = Mus musculus, L1210, ip, 72 h, 8 mg/kg i.p. once/day for 3 days (procedure A, saline), read-out: Percentage increase in life-span (ILS)
[10] = 16 mg/kg i.p. once/day for 3 days (procedure A, saline)
[11] = Mus musculus, L1210, ip, 72 h, 16 mg/kg i.p. once/day for 3 days (procedure A, saline), read-out: Percentage increase in life-span (ILS)
[12] = 6 mg/kg i.p. once/day for 3 days (procedure A, saline)
[13] = 10 mg/kg i.p. once/day for 3 days (procedure A, saline)
[14] = 20 mg/kg i.p. once/day for 3 days (procedure A, saline)
[15] = 30 mg/kg i.p. once/day for 3 days (procedure A, saline)
[16] = Mus musculus, L1210, ip, 72 h, 10 mg/kg i.p. once/day for 3 days (procedure A, saline), read-out: Percentage increase in life-span (ILS)
[17] = 200 mg/kg i.p. once/day for 5 days (procedure B, saline)
[18] = 300 mg/kg i.p. once/day for 5 days (procedure B, saline)
[19] = Mus musculus, L1210, ip, 120 h, read-out: Percentage increase in life-span (ILS)
[20] = 2.5 mg/kg i.p. once/day for 3 days (procedure A, saline)
[21] = 5 mg/kg i.p. once/day for 3 days (procedure A, saline)

Structure (SMILES) | Survival days, Treated (mean) [2] [days] | Volume of ascites, Treated [2] | Survival days, Treated (mean) [3] [days] | Volume of ascites, Treated [3] | Survival days, Treated (mean) [4] [days] | Volume of ascites, Treated [4] | Survival days, Treated (mean) [5] [days] | Volume of ascites, Treated [5] | ILS at 1 mg/kg [6] [%] | ILS at 2 mg/kg [7] [%] | ILS at 4 mg/kg [8] [%] | ILS at 8 mg/kg [9] [%] | Survival days, Treated (mean) [10] [days] | Volume of ascites, Treated [10] | ILS at 16 mg/kg [11] [%] | Survival days, Treated (mean) [13] [days] | Volume of ascites, Treated [13] | ILS at 10 mg/kg [16] [%] | other results
O=NN(CCCl)C(=O)N[C@@H]1O[C@H](CO)[C@@H](O)[C@H](O)[C@@H]1O [Compound 2, 1-(2-chloroethyl)-3-(β-D-mannopyranosyl)-1-nitrosourea] | 13.7 | 2.3 | 14.7 | 1.2 | 15.0 | 1.2 | 18.3 | 0 | 51.9 | 63 | 66.7 | 103 |  |  |  |  |  |  | Survival days, Treated (mean) [1]: 13.0 days; Volume of ascites, Treated [1]: 3.0; ILS at 0.5 mg/kg (Mus musculus, L1210, ip, 72 h, 0.5 mg/kg i.p. once/day for 3 days (procedure A, saline), read-out: Percentage increase in life-span (ILS)): 44.4%
O=NN(CCCl)C(=O)N[C@@H]1OC[C@@H](O)[C@H](O)[C@H]1O [Compound 3, 1-(2-chloroethyl)-1-nitroso-3-(β-D-xylopyranosyl)urea] | 17.0 | 0 | > 24.0 | 0 | > 60.0 | 0 | > 60.0 | 0 | 54.5 | > 118 | > 446 | > 446 | 9.0 | 0 | -18.2 |  |  |  | 
O=NN(CCCl)C(=O)N[C@H]1[C@H](O)CCC[C@@H]1O [Compound 4, 1-(2-chloroethyl)-3-(1,3/2N-dihydroxycyclohexyl)-1-nitrosourea] |  |  | 22.0 | 0.8 | > 60.0 | 0 | > 59.3 | 0 |  | 114 | > 482 | > 476 | 13.0 | 0 | 26.2 |  |  |  | 
O=NN(CCCl)C(=O)N[C@H]1[C@H](O)[C@@H](O)[C@H](O)[C@@H](O)[C@@H]1O [Compound 5, 1-(2-chloroethyl)-1-nitroso-3-(1N,3,5/2,4,6-pentahydroxycyclohexyl)urea] | 12.0 | 4.5 | 12.5 | 4.0 | 13.0 | 2.8 | 16.0 | 2.5 | 23.7 | 28.9 | 34 | 64.9 |  |  |  | 15.5 | 0 | 59.8 | Survival days, Treated (mean) [12]: 14.0 days; Volume of ascites, Treated [12]: 2.0; Survival days, Treated (mean) [14]: > 61.1 days; Volume of ascites, Treated [14]: 0; Survival days, Treated (mean) [15]: 11.6 days; Volume of ascites, Treated [15]: 0; ILS at 6 mg/kg (Mus musculus, L1210, ip, 72 h, 6 mg/kg i.p. once/day for 3 days (procedure A, saline), read-out: Percentage increase in life-span (ILS)): 44.3%; ILS at 20 mg/kg (Mus musculus, L1210, ip, 72 h, 20 mg/kg i.p. once/day for 3 days (procedure A, saline), read-out: Percentage increase in life-span (ILS)): > 530%; ILS at 30 mg/kg (Mus musculus, L1210, ip, 72 h, 30 mg/kg i.p. once/day for 3 days (procedure A, saline), read-out: Percentage increase in life-span (ILS)): 19.6%
CO[C@@H]1O[C@H](C)[C@@H](O)[C@H](O)[C@H]1NC(=O)N(C)N=O [Compound 6, Methyl 2,6-dideoxy-2-(N'-methyl-N-nitrosoureido)-βD-glucopyranoside] |  |  |  |  |  |  |  |  |  |  |  |  |  |  |  |  |  |  | Survival days, Treated (mean) [17]: 15.1 days; Volume of ascites, Treated [17]: 2.0; Survival days, Treated (mean) [18]: 13.0 days; Volume of ascites, Treated [18]: 0.3; ILS at 200 mg/kg [19]: 77.6%; ILS at 300 mg/kg [19]: 52.9%
O=NN(CCCl)C(=O)N[C@@H]1O[C@H](CO)[C@H](O)[C@H](O)[C@H]1O [Compound 7, 1-(2-chloroethyl)-3-(β-D-galactopyranosyl)-1-nitrosourea] | 18.5 | 4.6 | 14.7 | 0.8 | > 47.0 | 0 | > 47.0 | 0 | 98.9 | 58.1 | > 405 | > 405 |  |  |  | 18.7 | 0 | 101 | 
O=NN(CCCl)C(=O)N[C@@H]1O[C@H](CO)[C@@H](O[C@@H]2O[C@H](CO)[C@H](O)[C@H](O)[C@H]2O)[C@H](O)[C@H]1O [Compound 8, 1-(2-chloroethyl)-3-(β-D-lactosyl)-1-nitrosourea] |  |  |  |  |  |  |  |  |  |  |  |  |  |  |  | > 47.0 | 0 | > 384 | Survival days, Treated (mean) [20]: 12.5 days; Volume of ascites, Treated [20]: 3.3; Survival days, Treated (mean) [21]: 14.3 days; Volume of ascites, Treated [21]: 1.0; ILS at 2.5 mg/kg (Mus musculus, L1210, ip, 72 h, 2.5 mg/kg i.p. once/day for 3 days (procedure A, saline), read-out: Percentage increase in life-span (ILS)): 28.9%; ILS at 5 mg/kg (Mus musculus, L1210, ip, 72 h, 5 mg/kg i.p. once/day for 3 days (procedure A, saline), read-out: Percentage increase in life-span (ILS)): 47.4%
O=NN(CCCl)C(=O)N[C@@H](CO)[C@@H](O)[C@H](O)[C@H](O)CO [Compound 9, N-carbamoyl-N'-(2-chloroethyl)-N'-nitroso-D-glucosaminol] |  |  |  |  |  |  | 18.0 | 0 |  |  |  | 68.2 | > 53.7 | 0 | > 402 |  |  |  | 
COc1cccc2c1C(=O)c1c(O)c3c(c(O)c1C2=O)C[C@@](O)(C(C)=O)C[C@@H]3O[C@H]1C[C@H](N)[C@H](O)[C@H](C)O1 [Compound 10, Daunomycin, reference compound] |  |  |  |  |  |  |  |  |  |  |  |  |  |  |  |  |  |  | Survival days, Treated (mean) (0.25 mg/kg i.p. once/day for 5 days (procedure C, 0.5% CMC)): 10.2 days; Survival days, Treated (mean) (0.5 mg/kg i.p. once/day for 5 days (procedure C, 0.5% CMC)): 12.8 days; Survival days, Treated (mean) (1 mg/kg i.p. once/day for 5 days (procedure C, 0.5% CMC)): 12.6 days; Survival days, Treated (mean) (2 mg/kg i.p. once/day for 5 days (procedure C, 0.5% CMC)): 13.6 days; ILS at 0.25 mg/kg (Mus musculus, L1210, ip, 120 h, 0.25 mg/kg i.p. once/day for 5 days (procedure C, 0.5% CMC), read-out: Percentage increase in life-span (ILS)): 20%; ILS at 0.5 mg/kg (Mus musculus, L1210, ip, 120 h, 0.5 mg/kg i.p. once/day for 5 days (procedure C, 0.5% CMC), read-out: Percentage increase in life-span (ILS)): 50.6%; ILS at 1 mg/kg (Mus musculus, L1210, ip, 120 h, 1 mg/kg i.p. once/day for 5 days (procedure C, 0.5% CMC), read-out: Percentage increase in life-span (ILS)): 48.3%; ILS at 2 mg/kg (Mus musculus, L1210, ip, 120 h, 2 mg/kg i.p. once/day for 5 days (procedure C, 0.5% CMC), read-out: Percentage increase in life-span (ILS)): 60%
